Results as given in patent publication US11866450B2, “Modulators of Cystic Fibrosis Transmembrane Conductance regulator, pharmaceutical compositions, methods of treatment, and process for making the modulators” (priority 2018, dated 2024).

Target: CFTR-mediated chloride transport (Homo sapiens, UniProt P13569)
Assay type: cell-based
Conditions: enteroid cells incubated with test compound 18-24 hours, acute 10 μM forskolin and 300 nM Compound III; for Max. Activity: % of chloride transport with 3 μM Compound A, 3 μM Compound II and 300 nM acute Compound III triple combination control
Summary of the method: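 Human intestinal enteroid cells incubated with compound 18–24 h at 37° C., then membrane potential dye (FLIPR) read 15 min after chloride-free stimulation with 10 μM forskolin, 100 μM IBMX and 300 nM Compound III. AUC expressed as % of triple-combination control (3 μM Compound A, 3 μM Compound II, 300 nM Compound III).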

Chain of CFTR-mediated chloride transport (P13569 whole entry, looked up): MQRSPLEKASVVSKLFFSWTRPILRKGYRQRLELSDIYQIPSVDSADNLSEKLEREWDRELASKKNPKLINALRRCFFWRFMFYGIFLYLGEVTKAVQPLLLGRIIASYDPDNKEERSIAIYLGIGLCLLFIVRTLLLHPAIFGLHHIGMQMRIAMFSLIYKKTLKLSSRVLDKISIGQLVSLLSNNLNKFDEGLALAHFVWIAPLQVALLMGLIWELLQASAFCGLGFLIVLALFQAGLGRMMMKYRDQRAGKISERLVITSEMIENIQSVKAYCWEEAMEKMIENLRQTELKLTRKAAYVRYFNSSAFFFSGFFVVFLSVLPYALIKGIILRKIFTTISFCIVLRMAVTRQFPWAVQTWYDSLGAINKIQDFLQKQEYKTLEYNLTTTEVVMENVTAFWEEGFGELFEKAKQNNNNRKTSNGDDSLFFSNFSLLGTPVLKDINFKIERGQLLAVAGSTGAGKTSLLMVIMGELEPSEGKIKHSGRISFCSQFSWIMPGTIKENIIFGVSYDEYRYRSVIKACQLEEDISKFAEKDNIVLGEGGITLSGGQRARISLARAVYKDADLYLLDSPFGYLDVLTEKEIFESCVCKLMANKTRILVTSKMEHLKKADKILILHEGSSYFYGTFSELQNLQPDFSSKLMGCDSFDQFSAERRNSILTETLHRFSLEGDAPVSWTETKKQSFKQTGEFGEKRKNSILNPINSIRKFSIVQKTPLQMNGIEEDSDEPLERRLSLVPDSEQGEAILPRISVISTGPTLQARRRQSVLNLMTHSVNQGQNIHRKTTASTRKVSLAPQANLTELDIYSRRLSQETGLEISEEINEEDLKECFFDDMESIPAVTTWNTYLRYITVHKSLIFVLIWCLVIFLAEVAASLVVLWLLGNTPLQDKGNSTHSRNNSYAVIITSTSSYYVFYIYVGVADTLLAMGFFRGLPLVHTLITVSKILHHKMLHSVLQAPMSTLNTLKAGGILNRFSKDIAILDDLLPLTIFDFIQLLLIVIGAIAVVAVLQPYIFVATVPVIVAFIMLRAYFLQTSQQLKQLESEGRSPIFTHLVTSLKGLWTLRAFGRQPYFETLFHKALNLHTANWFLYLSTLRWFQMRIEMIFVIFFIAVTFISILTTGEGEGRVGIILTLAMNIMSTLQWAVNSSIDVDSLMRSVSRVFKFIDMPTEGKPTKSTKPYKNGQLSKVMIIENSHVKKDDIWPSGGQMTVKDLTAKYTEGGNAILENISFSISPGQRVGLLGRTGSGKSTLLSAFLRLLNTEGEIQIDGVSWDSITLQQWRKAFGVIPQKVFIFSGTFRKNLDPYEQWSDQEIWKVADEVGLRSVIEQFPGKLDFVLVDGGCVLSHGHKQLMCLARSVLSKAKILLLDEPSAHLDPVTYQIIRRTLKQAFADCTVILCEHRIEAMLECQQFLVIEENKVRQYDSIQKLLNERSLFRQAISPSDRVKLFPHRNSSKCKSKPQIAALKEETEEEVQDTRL

Row | Compound | EC50 | Max. Activity
1 | CC1(C)C[C@H]2CCCn3ccc(n3)S(=O)(=O)NC(=O)c3ccc(N4CCC(OCCC5(C(F)(F)F)CC5)C4=O)nc3N1C2 (stereo in doubt) [Compound 183, 20,20-Dimethyl-4-(2-oxo-3-{2-[1-(trifluoromethyl)cyclopropyl]ethoxy}pyrrolidin-1-yl)-10λ^6-thia-1,3,9,14,22-pentaazatetracyclo[16.2.1.111,14.02,7]docosa-2,4,6,11(22),12-pentaene-8,10,10-trione] | < 1000 nM | ++ (++ is 30-60%)
2 | CC1(C)C[C@H]2CCCn3ccc(n3)S(=O)(=O)NC(=O)c3ccc(-n4ccc(OCCC5(C(F)(F)F)CC5)n4)nc3N1C2 [Compound 84, (18R)-20,20-Dimethyl-4-(3-{2-[1-(trifluoromethyl)cyclopropyl]ethoxy}-1H-pyrazol-1-yl)-10λ^6-thia-1,3,9,14,22-pentaazatetracyclo[16.2.1.111,14.02,7]docosa-2,4,6,11(22),12-pentaene-8,10,10-trione] | > 3000 nM | + (+ is <30%)
3 | CC1(C)C[C@H]2CCCCNc3ccc(cn3)S(=O)(=O)NC(=O)c3ccc(-n4ccc(OCC5C6(CC6)C56CC6)n4)nc3N1C2 (single isomer, unassigned) [Compound 121, 8-[3-({dispiro[2.0.2.1]heptan-7-yl}methoxy)-1H-pyrazol-1-yl]-12,12-dimethyl-2λ^6-thia-3,9,11,19,21-pentaazatetracyclo[18.2.2.111,14.05,10]pentacosa-1(23),5,7,9,20(24),21-hexaene-2,2,4-trione] | < 1000 nM | +++ (+++ is >60%)
4 | C[C@@H]1CC[C@H]2CN(c3nc(N4CCN(CCC(C)(C)C)C4=O)ccc3C(=O)NS(=O)(=O)c3cccc(n3)N1)C(C)(C)C2 (single isomer, unassigned) [Compound 215, 8-[3-(3,3-dimethylbutyl)-2-oxoimidazolidin-1-yl]-12,12,17-trimethyl-2λ^6-thia-3,9,11,18,23-pentaazatetracyclo[17.3.1.111,14.05,10]tetracosa-1(22),5,7,9,19(23),20-hexaene-2,2,4-trione] | > 3000 nM | + (+ is <30%)
5 | CC(C)(C)CC[C@H]1CCN(c2ccc3c(n2)N2C[C@@H](CCCNc4cccc(n4)S(=O)(=O)NC3=O)CC2(C)C)C1=O (single isomer, unassigned) [Compound 126] | < 1000 nM | ++ (++ is 30-60%)
6 | CC1(C)C[C@H]2CCCCOc3ccc(cn3)S(=O)(=O)NC(=O)c3ccc(-n4ccc(OCCC5(C(F)(F)F)CC5)n4)nc3N1C2 (single isomer, unassigned) [Compound 103, 12,12-dimethyl-8-(3-{2-[1-(trifluoromethyl)cyclopropyl]ethoxy}-1H-pyrazol-1-yl)-19-oxa-2λ^6-thia-3,9,11,21-tetraazatetracyclo[18.2.2.111,14.05,10]pentacosa-1(23),5,7,9,20(24),21-hexaene-2,2,4-trione] | < 1000 nM | ++ (++ is 30-60%)
7 | CC1(C)C[C@H]2CCCNc3cccc(n3)S(=O)(=O)NC(=O)c3ccc(-n4ccc(OCCC(C5CC5)C5CC5)n4)nc3N1C2 [Compound 65, (14R)-8-[3-(3,3-dicyclopropylpropoxy)-1H-pyrazol-1-yl]-12,12-dimethyl-2λ^6-thia-3,9,11,18,23-pentaazatetracyclo[17.3.1.111,14.05,10]tetracosa-1(22),5,7,9,19(23),20-hexaene-2,2,4-trione] | < 1000 nM | ++ (++ is 30-60%)
8 | CC1(C)C[C@@H]2CCCNc3cccc(n3)S(=O)(=O)NC(=O)c3ccc(N4CC[C@H](OCCC5C6(CC6)C56CC6)C4=O)nc3N1C2 (single isomer, unassigned) [Compound 180] | < 1000 nM | +++ (+++ is >60%)
